The results in this text go back to patent publication US20190151312A1, “HEPARAN SULFATE BIOSYNTHESIS INHIBITORS FOR THE TREATMENT OF DISEASES” (BioMarin Pharmaceutical Inc., priority 2014, published 2019).

pIC50: −log10 of the molar value.

The pIC50 is −log10 of the IC50, conventionally taken in molar units.

One test deals with GM01896 cells (MPS II dermal fibroblasts). The test is described as follows: Assay 1: MPS cellular assay, MPS II (heparan sulfate disaccharide biomarkers by LC-MS). The test is classed as cell-based, human. The following applies: Assay 1 for MPS II, heparan sulfate disaccharide biomarkers (I2a4, I2a6, I2S0 and/or I2S6), read-out: IC50 Range. The essentials:
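MPS II patient dermal fibroblasts (GM01896) treated with compound at ≤30 μM for 4 to 21 days. Heparan sulfate GAGs isolated by anion exchange, digested with heparinases I-III, aniline-tagged against [13C6]aniline standards and quantified by LC-MS; IC50 from curve fitting. Viability monitored by alamar blue or ATP.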
As to `Cc1nn(C)c2cc(-c3cc(Nc4ccc5nn(C)nc5c4)nc(N4CCOCC4)n3)ccc12` [[6-(1,3-dimethyl(1H-indazol-6-yl))-2-morpholin-4-ylpyrimidin-4-yl](2-methyl(2-hydrobenzotriazol-5-yl))amine], the pIC50 is 5.30 to 6.00.
As to `Cc1nn(C)c2cc(-c3cc(Nc4ccc(-n5cccn5)cc4)nc(N4CCOCC4)n3)ccc12` [[6-(1,3-dimethyl(1H-indazol-6-yl))-2-morpholin-4-ylpyrimidin-4-yl](4-pyrazolylphenyl)amine], the pIC50 is more than 6.30.

The test is the same for the next values; noted with them: Homo sapiens, Fibroblast, Assay 1 for MPS II, heparan sulfate disaccharide biomarkers (I2a4, I2a6, I2S0 and/or I2S6), read-out: IC50 Range.
As for `Cc1nnc(-c2ccc(Nc3cc(-c4ccc5c(C)nn(CCN6CCOCC6)c5c4)nc(N4CCOCC4)n3)cc2)[nH]1` [[4-(5-methyl(4H-1,2,4-triazol-3-yl))phenyl]{6-[3-methyl-1-(2-morpholin-4-ylethyl)(1H-indazol-6-yl)]-2-morpholin-4-ylpyrimidin-4-yl}amine], the pIC50 is more than 6.30.
Turning to `CNC(=O)c1ccc(Nc2cc(-c3ccc4cnn(CCOC)c4c3)nc(N3CCOCC3)n2)cc1` [[4-({6-[1-(2-methoxyethyl)(1H-indazol-6-yl)]-2-morpholin-4-ylpyrimidin-4-yl}amino)phenyl]-N-methylcarboxamide], the pIC50 is more than 6.30.
The same measure, in the same setting: the result for `CNC(=O)c1ccc(Nc2cc(-c3ccc4ncn(CCOC)c4c3)nc(N3CCOCC3)n2)cc1` [[4-({6-[1-(2-methoxyethyl)benzimidazol-6-yl]-2-morpholin-4-ylpyrimidin-4-yl}amino)phenyl]-N-methylcarboxamide] reads more than 6.30.
Still for that read-out and setting: the result for `CNC(=O)c1ccc(Nc2cc(-c3ccc4cnn(CC5CC5)c4c3)nc(N3CCOCC3)n2)cc1` [[4-({6-[1-(cyclopropylmethyl)(1H-indazol-6-yl)]-2-morpholin-4-ylpyrimidin-4-yl}amino)phenyl]-N-methylcarboxamide] reads more than 6.30; that for `CNC(=O)c1ccc(Nc2cc(-c3ccc4nc(C)n(CC5CC5)c4c3)nc(N3CCOCC3)n2)cc1` [[4-({6-[1-(cyclopropylmethyl)-2-methylbenzimidazol-6-yl]-2-morpholin-4-ylpyrimidin-4-yl}amino)phenyl]-N-methylcarboxamide], more than 6.30.
Same read-out and setting: next, `CNC(=O)c1ccc(Nc2cc(-c3ccc4c(c3)ncn4CC3CC3)nc(N3CCOCC3)n2)cc1` [[4-({6-[1-(cyclopropylmethyl)benzimidazol-5-yl]-2-morpholin-4-ylpyrimidin-4-yl}amino)phenyl]-N-methylcarboxamide]: more than 6.30; `CNC(=O)c1ccc(Nc2cc(-c3ccc4ncn(CC5CC5)c4c3)nc(N3CCOCC3)n2)cc1` [[4-({6-[1-(cyclopropylmethyl)benzimidazol-6-yl]-2-morpholin-4-ylpyrimidin-4-yl}amino)phenyl]-N-methylcarboxamide]: more than 6.30; `CNC(=O)c1ccc(Nc2cc(-c3ccc4c(c3)ncn4CC3CC3)nc(N3CCOCC3)n2)cn1` [[5-({6-[1-(cyclopropylmethyl)benzimidazol-5-yl]-2-morpholin-4-ylpyrimidin-4-yl}amino)(2-pyridyl)]-N-methylcarboxamide]: 6.00 to 6.30.
Turning to `CNC(=O)c1ccc(Nc2cc(-c3ccc4ncn(CC5CC5)c4c3)nc(N3CCOCC3)n2)cn1` [[5-({6-[1-(cyclopropylmethyl)benzimidazol-6-yl]-2-morpholin-4-ylpyrimidin-4-yl}amino)(2-pyridyl)]-N-methylcarboxamide], the pIC50 is more than 6.30.
Regarding `CNC(=O)c1ccc(Nc2cc(-c3ccc4nn(CC5CC5)cc4c3)nc(N3CCOCC3)n2)cn1` [[5-({6-[2-(cyclopropylmethyl)(2H-indazol-5-yl)]-2-morpholin-4-ylpyrimidin-4-yl}amino)(2-pyridyl)]-N-methylcarboxamide], the pIC50 was 5.30 to 6.00.
For `CNC(=O)c1ccc(Nc2cc(-c3ccc4cn(CC5CC5)nc4c3)nc(N3CCOCC3)n2)cn1` [[5-({6-[2-(cyclopropylmethyl)(2H-indazol-6-yl)]-2-morpholin-4-ylpyrimidin-4-yl}amino)(2-pyridyl)]-N-methylcarboxamide], the pIC50 is 5.30 to 6.00.
`Cc1nc2ccc(-c3cc(Nc4ccc(Cl)cc4)nc(N4CCOCC4)n3)cc2n1C` [[6-(1,2-dimethylbenzimidazol-6-yl)-2-morpholin-4-ylpyrimidin-4-yl](4-chlorophenyl)amine]: the pIC50 is 6.00 to 6.30.
Still for that read-out and setting: the result for `Cc1nn(C)c2cc(-c3cc(Nc4ccc5c(C)c(C)n(C)c5c4)nc(N4CCOCC4)n3)ccc12` [[6-(1,3-dimethyl(1H-indazol-6-yl))-2-morpholin-4-ylpyrimidin-4-yl](1,2,3-trimethylindol-6-yl)amine] reads 5.30 to 6.00; that for `Cc1nn(C)c2cc(-c3cc(Nc4ccc5cc(C)n(C)c5c4)nc(N4CCOCC4)n3)ccc12` [[6-(1,3-dimethyl(1H-indazol-6-yl))-2-morpholin-4-ylpyrimidin-4-yl](1,2-dimethylindol-6-yl)amine], 6.00 to 6.30; that for `CCn1ccc2ccc(Nc3cc(-c4ccc5c(C)nn(C)c5c4)nc(N4CCOCC4)n3)cc21` [[6-(1,3-dimethyl(1H-indazol-6-yl))-2-morpholin-4-ylpyrimidin-4-yl](1-ethylindol-6-yl)amine], 5.30 to 6.00.
On the same count and under the same terms, the result for `Cc1nn(C)c2cc(-c3cc(Nc4ccc5ncn(C)c5c4)nc(N4CCOCC4)n3)ccc12` [[6-(1,3-dimethyl(1H-indazol-6-yl))-2-morpholin-4-ylpyrimidin-4-yl](1-methylbenzimidazol-6-yl)amine] reads 5.30 to 6.00.
On the same count and under the same terms, next, `Cc1nn(C)c2cc(-c3cc(Nc4ccc5c(ccn5C)c4)nc(N4CCOCC4)n3)ccc12` [[6-(1,3-dimethyl(1H-indazol-6-yl))-2-morpholin-4-ylpyrimidin-4-yl](1-methylindol-5-yl)amine]: 6.00 to 6.30; `Cc1nn(C)c2cc(-c3cc(Nc4ccc5ccn(C)c5c4)nc(N4CCOCC4)n3)ccc12` [[6-(1,3-dimethyl(1H-indazol-6-yl))-2-morpholin-4-ylpyrimidin-4-yl](1-methylindol-6-yl)amine]: more than 6.30.
Turning to `Cc1nn(C)c2cc(-c3cc(Nc4ccc5nn(C)cc5c4)nc(N4CCOCC4)n3)ccc12` [[6-(1,3-dimethyl(1H-indazol-6-yl))-2-morpholin-4-ylpyrimidin-4-yl](2-methyl(2H-indazol-5-yl))amine], the pIC50 is 5.30 to 6.00.
The same measure, in the same setting: the result for `Cc1nn(C)c2cc(-c3cc(Nc4ccc5cn(C)nc5c4)nc(N4CCOCC4)n3)ccc12` [[6-(1,3-dimethyl(1H-indazol-6-yl))-2-morpholin-4-ylpyrimidin-4-yl](2-methyl(2H-indazol-6-yl))amine] reads 5.30 to 6.00; that for `Cc1nn(C)c2cc(-c3cc(Nc4ccc(-n5nccn5)cc4)nc(N4CCOCC4)n3)ccc12` [[6-(1,3-dimethyl(1H-indazol-6-yl))-2-morpholin-4-ylpyrimidin-4-yl](4-(1,2,3-triazol-2-yl)phenyl)amine], more than 6.30.
Turning to `Cc1nn(C)c2cc(-c3cc(Nc4ccc(-c5ncon5)cc4)nc(N4CCOCC4)n3)ccc12` [[6-(1,3-dimethyl(1H-indazol-6-yl))-2-morpholin-4-ylpyrimidin-4-yl](4-(1,2,4-oxadiazol-3-yl)phenyl)amine], the pIC50 was 6.00 to 6.30.
Still for that read-out and setting: the result for `Cc1nn(C)c2cc(-c3cc(Nc4ccc(-c5ncno5)cc4)nc(N4CCOCC4)n3)ccc12` [[6-(1,3-dimethyl(1H-indazol-6-yl))-2-morpholin-4-ylpyrimidin-4-yl](4-(1,2,4-oxadiazol-5-yl)phenyl)amine] reads 5.30 to 6.00.
On the same count and under the same terms, the result for `Cc1nn(C)c2cc(-c3cc(Nc4ccc(-c5ncco5)cc4)nc(N4CCOCC4)n3)ccc12` [[6-(1,3-dimethyl(1H-indazol-6-yl))-2-morpholin-4-ylpyrimidin-4-yl](4-(1,3-oxazol-2-yl)phenyl)amine] reads 6.00 to 6.30.
Same read-out and setting: next, `Cc1nn(C)c2cc(-c3cc(Nc4ccc(-c5cocn5)cc4)nc(N4CCOCC4)n3)ccc12` [[6-(1,3-dimethyl(1H-indazol-6-yl))-2-morpholin-4-ylpyrimidin-4-yl](4-(1,3-oxazol-4-yl)phenyl)amine]: more than 6.30; `Cc1nn(C)c2cc(-c3cc(Nc4ccc(C5=NCCO5)cc4)nc(N4CCOCC4)n3)ccc12` [[6-(1,3-dimethyl(1H-indazol-6-yl))-2-morpholin-4-ylpyrimidin-4-yl](4-(1,3-oxazolin-2-yl)phenyl)amine]: 5.30 to 6.00; `Cc1nn(C)c2cc(-c3cc(Nc4cc(Cl)c5ccn(C)c5c4)nc(N4CCOCC4)n3)ccc12` [[6-(1,3-dimethyl(1H-indazol-6-yl))-2-morpholin-4-ylpyrimidin-4-yl](4-chloro-1-methylindol-6-yl)amine]: 5.30 to 6.00.
Regarding `Cc1nn(C)c2cc(-c3cc(Nc4ccc(Cl)cc4)nc(N4CCOCC4)n3)ccc12` [[6-(1,3-dimethyl(1H-indazol-6-yl))-2-morpholin-4-ylpyrimidin-4-yl](4-chlorophenyl)amine], the negative logarithm of the IC50 (pIC50) was 6.00 to 6.30.
Same read-out and setting: the result for `Cc1nn(C)c2cc(-c3cc(Nc4ccc(-c5ncc[nH]5)cc4)nc(N4CCOCC4)n3)ccc12` [[6-(1,3-dimethyl(1H-indazol-6-yl))-2-morpholin-4-ylpyrimidin-4-yl](4-imidazol-2-ylphenyl)amine] reads more than 6.30.
On the same count and under the same terms, next, `Cc1nn(C)c2cc(-c3cc(Nc4ccc(-c5c[nH]cn5)cc4)nc(N4CCOCC4)n3)ccc12` [[6-(1,3-dimethyl(1H-indazol-6-yl))-2-morpholin-4-ylpyrimidin-4-yl](4-imidazol-4-ylphenyl)amine]: 5.30 to 6.00; `Cc1nn(C)c2cc(-c3cc(Nc4ccc(-c5ccn[nH]5)cc4)nc(N4CCOCC4)n3)ccc12` [[6-(1,3-dimethyl(1H-indazol-6-yl))-2-morpholin-4-ylpyrimidin-4-yl](4-pyrazol-5-ylphenyl)amine]: more than 6.30; `Cc1nn(C)c2cc(-c3cc(Nc4ccc(-c5ccc[nH]5)cc4)nc(N4CCOCC4)n3)ccc12` [[6-(1,3-dimethyl(1H-indazol-6-yl))-2-morpholin-4-ylpyrimidin-4-yl](4-pyrrol-2-ylphenyl)amine]: more than 6.30.
